Consider two compounds from patent publication US20130115174A1, “TRANSMUCOSAL COMPOSITION CONTAINING ANTHOCYANINS FOR ALLEVIATING A VISUAL DISCOMFORT” (priority 2010, published 2013).

Where two headings read alike, the source gives them in different places.

On the set-up of data set [1]: species or system Rats (OFA, Sprague-Dawlay). Particulars: rat, in vivo.
Method: The stick gum administered to Rats contains 5 mg of vegetal extract titrated at 25% of anthocyanosides (i.e. 1.250 μg of anthocyanosides).
The Sprague Dawley rat (10 Males) used extensively in medical research weighing 450-520 g were received and placed separately in cage in room temperature controlled (22° C.). […] Rats were maintained in dark periode condition and fed a diet (755 g/kg wheat starch, 150 g/kg casein, 50 g/kg peanut oil, 35 g/kg AlN-93M mineral mixture, 10 g/kg AlN-76A vitamin mixture) during 2 weeks (Felgines, C. et al. J. Nutr 2002).
The stick gum was deposited at the buccal mucosa area.
Peripheral blood was collected 1 hour post-administration, centrifuged and plasma was acidified through formic acid addition. After acidification, plasma samples were conserved at −80° C. and analyzed by LC-MS/MS (Liquid Chromatography—Mass Spectrometer/Mass Spectrometer).
In parallel, epithelium and conjunctive tissues were collected 45 minutes post-administration, placed in formic acid and eventually conserved at −80° C. Before LC-MS/MS analyze, tissues were washed in PBS (phosphate buffered saline) and homogenized on ice. Protein concentrations were determined by Lowry method. To facilitate tissues preparation, samples were homogenized and treated with 2.5% trypsin and 2% collagenase during 1.5 h at 37° C., and then acidified with formic acid. […]
A short description of data set [2]: Digestive versus sublingual absorption, plasmatic level 1 hour after administration. The class given is in vivo, Rats. Particulars: for concentration at 1 h: rat, plasma, read-out: Plasmatic lutein concentration. The method, then: Taurin and Lutein plasmatic level are evaluated using HPLC process as described Lallemand F. et al, 2004 and Shanmugam S, et al, 2011, respectively.

For the compound Anthocyanin, the “absorption in the tissues and in the plasma” value in data set [1] is given as “significantly absorbed”.

Take `CC1=C[C@H](O)CC(C)(C)[C@H]1/C=C/C(C)=C/C=C/C(C)=C/C=C/C=C(C)/C=C/C=C(C)/C=C/C1=C(C)C[C@@H](O)CC1(C)C` [lutein, Lutein]: the “absorption, lingual way as compared to the digestive way” value in data set [2] (Example 5, rats) is “more effective”. In addition, the concentration at 1 h in data set [2] (oral, Digestive, 6 mg/kg) was 34 ng/mL; in data set [2] (oral, Digestive, 12 mg/kg) it was 32 ng/mL; in data set [2] (other: sublingual, Sublingual, 6 mg/kg), 120 ng/mL; in data set [2] (other: sublingual, Sublingual, 12 mg/kg), 160 ng/mL.
